Here are results for one compound from patent US7365085B2, “Compounds and methods” (SmithKline Beecham Corporation, priority 2002, dated 2008).

Experiment [1] addresses T1, LXRα ligand binding domain (Homo sapiens, UniProt Q13133).
T1 construct: His tag; made in house
T1 sequence (Q13133 183-447): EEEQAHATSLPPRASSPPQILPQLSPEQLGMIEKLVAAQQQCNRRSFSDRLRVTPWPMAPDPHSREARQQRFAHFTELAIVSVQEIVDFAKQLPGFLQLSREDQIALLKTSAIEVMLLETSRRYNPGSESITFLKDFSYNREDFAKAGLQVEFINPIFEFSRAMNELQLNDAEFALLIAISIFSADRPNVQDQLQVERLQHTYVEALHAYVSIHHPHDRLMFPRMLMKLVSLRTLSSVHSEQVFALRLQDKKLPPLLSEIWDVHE
T1 sequence (Q15788 676-700 partner): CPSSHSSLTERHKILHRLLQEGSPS
Description: Ligand Sensing Assay for LXRα agonist activity. In kind it is biochemical. As to conditions: 1 μM; over a background reading of 10000 fluorescence units. How it is done: Test Method 2: Ligand Sensing Assay for LXRα Agonist Activity
The assay for LXRα was run according to the procedures of Test Method 1, above using his-tagged LXRα ligand binding domain (amino acids 183-447 of Genbank accession number U22662, with the 14th amino acid corrected to A from R). In this assay 1 μM 24(S),25-epoxycholesterol gave a reading of 20000 fluorescence units over a background reading of 10000 fluorescence units.

Experiment [2] concerns the target T2, human LXRβ ligand binding domain (Homo sapiens, UniProt P55055).
T2 construct: made in house; host or cells: E. coli BL21 (DE3), vector pRSETa
T2 sequence (P55055 184-460 limits assumed): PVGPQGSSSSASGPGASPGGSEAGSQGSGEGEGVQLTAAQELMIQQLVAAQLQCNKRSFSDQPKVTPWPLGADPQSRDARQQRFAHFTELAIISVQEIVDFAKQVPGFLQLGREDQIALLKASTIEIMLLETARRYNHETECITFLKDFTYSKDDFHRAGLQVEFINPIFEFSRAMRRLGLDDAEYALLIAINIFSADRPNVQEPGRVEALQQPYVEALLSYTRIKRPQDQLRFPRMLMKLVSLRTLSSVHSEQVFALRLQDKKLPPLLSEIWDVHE
T2 sequence (Q15788 676-700 partner limits assumed): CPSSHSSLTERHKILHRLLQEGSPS
The experiment in a line: Ligand Sensing Assay (LiSA) for LXRβ agonist activity (recruitment of SRC1-derived peptide). Format: biochemical. As to conditions: 1 μM; over a background reading of 10000 fluorescence units. The source says: The term “LXR modulator,” as used herein, means a small molecule that modulates the biological activities of LXRα and/or LXRβ. More specifically, such an LXR modulator either enhances or inhibits the biological activities of LXR. If such a modulator partially or completely enhances the biological activities of LXR, it is a partial or complete LXR agonist, respectively. […] Preferably, the LXR modulator compounds of this invention are LXR agonists. As used herein, the term “LXR agonist” refers to compounds which achieve at least 20% activation of LXR relative to 24(S),25-epoxycholesterol, the appropriate positive control in the HTRF assay described below in Test Method 1. It should be noted that to show activity in the specific Test Methods described herein, the LXR modulator compound must bind to the LXR nuclear receptor and recruit the specific peptide derived from the coactivator protein, SRC1, to the modulator compound-bound LXR complex. […]
Typically 25-50 g of cell paste is resuspended in 250-500 mL TBS, pH 8.0 (25 mM Tris, 150 mM NaCl). […] After washing to baseline absorbance with equilibration buffer, the column is washed with approximately one column volume of TBS pH […] containing 95 mM imidazole. […] Afterwashing to baseline absorbance with the dilution buffer the protein is eluted with a gradient from 50-500 mM NaCl. […]

On to `C[C@H](CC[C@@H]1OC1(C)C)[C@H]1CC[C@H]2[C@@H]3CC=C4C[C@@H](O)CC[C@]4(C)[C@H]3CC[C@]12C` [24(S),25-epoxycholesterol], for which the reading in experiment [1] and in experiment [2] was 20000 fluorescence units each time.
